In PMC3106998, “The novel sigma-2 receptor ligand SW43 stabilizes pancreas cancer progression in combination with gemcitabine” (2010):

Biological target: T1, sigma-2 receptor (Mus musculus, UniProt Q8VD00)
T1 construct: gene Tmem97; Panc02 tumor membrane homogenates
T1 sequence (Q8VD00 1-176): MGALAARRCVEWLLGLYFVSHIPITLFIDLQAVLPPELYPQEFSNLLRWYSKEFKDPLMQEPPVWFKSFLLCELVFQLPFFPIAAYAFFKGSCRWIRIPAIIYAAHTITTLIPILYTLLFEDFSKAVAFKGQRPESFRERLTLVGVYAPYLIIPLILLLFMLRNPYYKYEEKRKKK
Assay: radioligand competition with […]-ISO-2 in membrane homogenates
Assay type: binding

Row | Compound | IC50
1 | COc1ccc(C)cc1NC(=O)OC1CC2CCCC(C1)N2CCCCCCN (centres unmarked) [SV119] | 7.8 ± 1.7 nM
2 | COc1ccc(C)cc1NC(=O)OC1CC2CCCC(C1)N2CCCCCCCCCCN (centres unmarked) [SW43] | 18 ± 2.1 nM
